Values quoted from earlier work in publication PMC8198792, “Prediction of Anticancer Peptides with High Efficacy and Low Toxicity by Hybrid Model Based on 3D Structure of Peptides” (International Journal of Molecular Sciences, 2021).
Read-outs that look alike come from different tables or passages of the source.

Tested on: erythrocytes
Details: cited from earlier work
Source text: Supplement ijms-22-05630-s001.zip/Hemloytic Peptides(seguence).xlsx, sheet "HD1" | column: Activity || Supplement ijms-22-05630-s001.zip/Hemloytic Peptides(seguence).xlsx, sheet "HD2" | column: Activity || Supplement ijms-22-05630-s001.zip/Hemloytic Peptides(seguence).xlsx, sheet "HD3" | column: Activity

[1] = Hemolytic peptides dataset HD2, label 1 = hemolytic, 0 = non-hemolytic, ref Hemolytik/SATPdb
[2] = hemolytic peptides dataset HD3, 1 = hemolytic (positive set), 0 = non-hemolytic (negative set), labels taken from databases, ref Hemolytik/SATPdb
[3] = natural hemolytic peptide dataset HD1, label collected from databases, ref Hemolytik [49], SATPdb [34]

Row | Substance | Activity | Activity (dataset HD1, hemolytic 1 / non-hemolytic 0) | other results
1 | KKLKKLLKKWKKLLKKLK [satpdb24868] | 0 | 0 | –
2 | SWSSFFKKAAHSGKHVGKSASTHYL [satpdb15741] | 0 | – | –
3 | LRRLWLRANRL [satpdb19164] | 0 | 0 | –
4 | FKTWKRPPFQTSCSGIIKE [satpdb21275] | 0 | 0 | –
5 | SFHVFPPWMCKSLKKC [satpdb22093] | 0 | 0 | –
6 | KKFLHSAKKWLKAFVKLKKNW [satpdb15438] | 1 | 1 | –
7 | KKKKKKAAFAAFAAFAA [satpdb24627] | 0 | – | –
8 | FLPLVLGALSGILPKILGK [satpdb12081] | 1 | 1 | –
9 | KWKKLPKKLLKLL [satpdb21914] | 0 | – | –
10 | CVISAGWNHKIRCKLTGNC [satpdb27441] | 0 | 0 | –
11 | GIGKFLHSAKKFGKAFVGEIMNS [satpdb11151] | – | – | Activity [1]: 1; Activity [2]: 1
12 | KAACAAKCLWR [satpdb24099] | 0 | – | –
13 | ILPWKLPLLPLRR [satpdb15320] | 0 | – | –
14 | KRFKQDGGWSHWSPWSS [satpdb23837] | 0 | 0 | –
15 | RRGWVLALYLRYGRR [satpdb15589] | 1 | 1 | –
16 | KWLRRVWRWWR [satpdb13727] | 1 | – | –
17 | LKKWLKKWLKK [satpdb15781] | 0 | – | –
18 | fPOVO [satpdb21927] | – | – | Activity [1]: 0; Activity [2]: 0
19 | KRLFRRLLFSMKKY [satpdb20261] | 0 | 0 | –
20 | KWKFKKIPKFLHLAKKF [satpdb23702] | – | – | Activity [1]: 0; Activity [2]: 0
21 | KKKKKKAAFLAWALFAA [compound 1149] | 1 | – | –
22 | KRLFKKLLFSLRKY [satpdb21867] | 0 | 0 | –
23 | WLKKW [satpdb27168] | – | – | Activity [1]: 0; Activity [2]: 0
24 | KWKLFKKIPKFLHSAKKF [satpdb25981] | 0 | – | –

Row | Substance | Activity | Activity (dataset HD1, hemolytic 1 / non-hemolytic 0) | other results
25 | ENAEEDIVLMENLFCSYIVGSADSFWT [satpdb18741] | 0 | 0 | –
26 | KLLKLLLKLLKLLLKLLLKLLK [compound 3828] | 1 | – | –
27 | RWRSFFKKAAHRGKHVGKRARTHYL [satpdb15888] | 0 | – | –
28 | LLKKLLKWLKK [satpdb11747] | 1 | – | –
29 | RFGRFLRKIRRFRPK [satpdb23150] | 0 | 0 | –
30 | KWLKKWL [satpdb27612] | 0 | – | –
31 | DSHEKRHHGYKRKFHEKHHSHRGY [satpdb14665] | 0 | 0 | –
32 | KWKLFKKIGIGKFLHSAKKF [compound 2023] | 0 | – | –
33 | RIIDLLWRVRRPQKPKFVTVWVR [satpdb14815] | 0 | 0 | –
34 | KWKSFLKTLKSPVKTVFYTALKPISS [satpdb14675] | – | – | Activity [2]: 1; Activity (dataset HD1, hemolytic 1 / non-hemolytic 0) [3]: 1
35 | GKLNLFLSRLEILKLFVGAL [satpdb18533] | 0 | 0 | –
36 | QSRVIQGLVAGETAQQICED [satpdb27946] | 0 | 0 | –
37 | LKDVEEAQQKIINIIRRL [satpdb22186] | 0 | – | –
38 | FLGPIIKIATGILPTAICKILKKC [satpdb24144] | 0 | 0 | –
39 | KKlFKKILkYL [satpdb19353] | – | – | Activity [1]: 0; Activity [2]: 0
40 | WKKIPKFLHLAKKF [satpdb14752] | 0 | – | –
41 | KWKSFLKTFKSlKKTVLHTlLKAISS [satpdb12638] | – | – | Activity [1]: 1; Activity [2]: 1
42 | HYRIKPTFRRLKWKYKGKFW [satpdb11796] | 1 | 1 | –
43 | KKAAHVGKHVGKAALTHYL [satpdb21325] | 0 | – | –
44 | GWKSVFRKAKKVGKTVGGLALDHYL [satpdb12845] | 1 | – | –
45 | AAGMGFFGAR [satpdb25191] | – | – | Activity [1]: 0; Activity [2]: 0
46 | KWKLFKKIGPGKFLHSAKKF [satpdb18846] | 0 | – | –
47 | KVAKQEKKKKKTGRAKRR [satpdb15637] | 1 | 1 | –
48 | CVHWQTNPARTSCIGP [satpdb12022] | 0 | 0 | –

Row | Substance | Activity | Activity (dataset HD1, hemolytic 1 / non-hemolytic 0) | other results
49 | KWKSFLRTFKSPVRTVFHTALKPISS [satpdb15241] | 1 | 1 | –
50 | GIIKKIIKKI [satpdb26556] | 0 | – | –
51 | RGGRLAYCRRRFCVAVGR [satpdb25189] | 0 | – | –
52 | VRRFPFFFPFLRR [satpdb22709] | 0 | 0 | –
53 | GWGSFFKKAAHVGKHVGKAALT [satpdb28107] | 0 | – | –
54 | GFLSILKKVLKVMAHMK [satpdb11385] | – | – | Activity [1]: 1; Activity [2]: 1
55 | KKKKKKKKKKGIGKFLHSAKKFGKAFVGEIMNS [satpdb13667] | 0 | 0 | –
56 | AKKVFKRLEKLFSKIWNDK [satpdb16260] | 0 | 0 | –
57 | QRSVSNAATRVSRTGRSRWRDVSRNFMRR [satpdb24123] | 0 | 0 | –
58 | WYLTLTLGYGRR [satpdb16552] | 1 | 1 | –
59 | ILGKLLSTAAKLLSKL [satpdb12927] | 1 | – | –
60 | KIAEKFSGTRRG [satpdb24068] | 0 | 0 | –
61 | FLPLIGRVLSGIL [satpdb12693] | 1 | – | –
62 | QTRRLTYKpRTVTYTRGR [satpdb13569] | 1 | – | –
63 | RWKIFKKIEKVGRNVRDGIIKAGPAVAVVGQAATVVKG [satpdb26767] | – | – | Activity [2]: 0; Activity (dataset HD1, hemolytic 1 / non-hemolytic 0) [3]: 0
64 | RAGLQFPVGRLLRRLLR [satpdb15223] | 0 | 0 | –
65 | GILDTLKQFAKGVGKDLVKGAAQGVLSTVSCKLAKTC [satpdb16042] | 0 | 0 | –
66 | KLLKLLLKLLLKLLK [compound 3689] | 1 | – | –
67 | PKLLKTFLKWIG [satpdb11234] | 1 | 1 | –
68 | KKWLKKWLK [satpdb18253] | 0 | – | –
69 | WLLKW [satpdb27330] | – | – | Activity [1]: 0; Activity [2]: 0
70 | KPLLKKLLKKL [satpdb28330] | 0 | – | –
71 | GSKKPVPIIYANRRTGKAQRM [satpdb20538] | 0 | 0 | –
72 | VLSAADKGNVKAAWGKVGGHAAE [satpdb26597] | 0 | 0 | –

Row | Substance | Activity | Activity (dataset HD1, hemolytic 1 / non-hemolytic 0) | other results
73 | KWKLFKKIPKFLHL [satpdb16155] | 0 | – | –
74 | KNWKGIAGMAKKLLGKNWELMKK [satpdb11666] | – | – | Activity [2]: 1; Activity (dataset HD1, hemolytic 1 / non-hemolytic 0) [3]: 1
75 | ALLHHGLNCAKGVLAALLHHGLNCAKGVLA [satpdb21285] | 0 | 0 | –
76 | KRLFRRWQWRMKKY [satpdb17153] | 0 | 0 | –
77 | CKTRTSTNTDHLWIAKSKARLSET [satpdb28106] | 0 | 0 | –
78 | KWKLFKKIKFLHSAKKF [satpdb22653] | 0 | – | –
79 | PKLKTFLSKWIG [satpdb28564] | 0 | 0 | –
80 | KAVAAKKSPKKAKKPAT [satpdb19355] | 0 | 0 | –
81 | VRRFPAAAPFLRR [satpdb24534] | 0 | 0 | –
82 | FGVLAKVAAHVVPAIAEHF [satpdb27842] | 0 | – | –
83 | GSKKPVPIIYCNRRAATGKCQRM [satpdb20782] | 0 | 0 | –
84 | KKLKKLKKKWKKLKKKLK [satpdb24596] | 0 | 0 | –
85 | QKAVLDCLKAAGSSLSKAAITAI [satpdb19403] | 0 | 0 | –
86 | GMWSKIKNAGKAAKAAAKAAGKAALGAVSEAM [satpdb14564] | 0 | 0 | –
87 | GGLRSLGRKILRAWKKYGPIIVPIIRIG [satpdb22390] | 0 | 0 | –
88 | LLLKLLKLLLKLLLKLLK [compound 3688] | 1 | – | –
89 | MAFKKLEKVGRNIRDGIIKAGPAVAVIGQATSIARPTGK [satpdb16695] | 0 | 0 | –
90 | GLFDIIKKIAESFKFSEAIKKIIDFLG [satpdb13437] | 1 | 1 | –
91 | LRQSQFVGSR [satpdb22092] | 0 | – | –
92 | CYCRIPACIAGERRYGTCIYQGRLWAFCC [satpdb11499] | 1 | 1 | –
93 | RRLMAAKAESRK [satpdb23556] | 0 | 0 | –
94 | KLLLKLLKLLLKLLLKLLK [compound 3687] | 1 | – | –
95 | ILGKLLSTAWGLLSNL [satpdb11718] | 1 | – | –
